From ChEMBL document CHEMBL3507680, “University of Dundee, Gates Library screen for HepG2 cell viability”

Test: Human HepG2 cell viability assay in 384 well format
Assay type: toxicity, cell-based
Set-up: dose 125 nL, time 70.5 hour; concentration not given beside the values
Details: HepG2 cells, read-out: Inhibition

Row | Structure (SMILES) | cytotoxicity at 70.5 h [%]
1 | Nc1cc2c(nn1)CCN(C(=O)C1CCc3ccccc31)C2 (centres undefined) | -11.2
2 | Cc1cc(CNC(=O)N(Cc2ccc(F)cc2F)C2CC2)no1 | 15.5
3 | Cc1cc(NC(=O)CN2CCC(N(C)Cc3ncc(C)o3)C2)n(C)n1 (centres undefined) | 16.2
4 | CCCN(C)CCC(=O)N1CCCC1Cn1cccn1 (centres undefined) | 15.3
5 | CC(C(=O)NCCOc1ccccc1)n1cncn1 (centres undefined) | -12.5
6 | N#Cc1ccc(OCC(O)CN2CCC(c3ccn[nH]3)CC2)cc1 (centres undefined) | -14.4
7 | NC(=O)CN1CCCN(C(=O)CCOc2ccccc2Cl)CC1 | -6.92
8 | c1cncc(-c2noc(CN3CCCC(Cn4cncn4)C3)n2)c1 (centres undefined) | 9.23
9 | c1ccc(-c2noc(CN3CCCC(Cn4cncn4)C3)n2)nc1 (centres undefined) | -11.5
10 | Cc1ccc(C)c(OCCC(=O)N2CCCN(CC(N)=O)CC2)c1 | -7.33
11 | Cc1ccc(-c2noc(CN3CCCC(Cn4cncn4)C3)n2)cc1 (centres undefined) | -1.78
12 | CC(C)(C)C(O)CN1CCN(C(=O)c2ccc3c(c2)COC3)CC1 (centres undefined) | 10.4
13 | Cc1cnn(CCNCC(O)COc2ccc(Cl)cc2Cl)c1 (centres undefined) | -2.81
14 | Cc1cnn(CCNCC(O)COc2cc(Cl)ccc2Cl)c1 (centres undefined) | -14.6
15 | Cc1cnn(CCNCC(O)COc2ccc3ccccc3c2)c1 (centres undefined) | -0.298
16 | CCc1noc(C)c1C(=O)N1CCCC1c1c(C)nn(C)c1C (centres undefined) | -1.9
17 | CC(C(=O)NCC(F)(F)F)N1CCC(N2CCN(C)C2=O)CC1 (centres undefined) | -8.46
18 | CCCc1noc(CCC(=O)N2CCCC2c2cccs2)n1 (centres undefined) | -2.53
19 | CCn1ncc2c1CCCC2NCc1cc(C)ccc1OC (centres undefined) | -12.5
20 | CN(CC(=O)N1CCCCC1Cn1cccn1)Cc1ccccc1 (centres undefined) | 13
21 | COc1c(C2CCCN2C(=O)c2c(C)noc2C)c(C)nn1C (centres undefined) | -8.08

Row | Structure (SMILES) | cytotoxicity at 70.5 h [%]
22 | CN(CC(=O)N1CCCC1Cn1cccn1)Cc1ccccc1 (centres undefined) | -17.4
23 | CCCc1noc(CCC(=O)N2CCCC2c2ccncc2)n1 (centres undefined) | -5.95
24 | COc1ccccc1COCC(O)CN1CCC(c2ccn[nH]2)CC1 (centres undefined) | -8.12
25 | c1coc(-c2noc(CN3CCCC3Cn3cncn3)n2)c1 (centres undefined) | -8.45
26 | CCn1ncc2c1CCCC2NCc1ccc(OC)cc1OC (centres undefined) | -4.5
27 | Cc1cnc(CN(C)C2CCN(CC(=O)Nc3nccs3)C2)o1 (centres undefined) | -5.94
28 | CCn1cc(CN2CCCN(C(=O)c3sccc3OC)CC2)cn1 | 3.74
29 | O=C(CN1CCCC(Cn2cncn2)C1)NCCC1=CCCCC1 (centres undefined) | 7.12
30 | CCn1cc(CN2CCCN(C(=O)c3cccc(C#N)c3)CC2)cn1 | -3.9
31 | COc1cccc(C2CCCN2CCCNS(C)(=O)=O)c1 (centres undefined) | -12.4
32 | COc1ccc(C2CCCCCN2CCCNS(C)(=O)=O)cc1 (centres undefined) | -6.03
33 | CCCc1nc(CN2CCCC2c2cnn(C)c2)cs1 (centres undefined) | 13
34 | Cc1cnn(CCC(=O)N2CCCN(c3nc(C)cs3)CC2)c1 | -3.54
35 | Cn1cc(CN2CCCN(C(=O)c3sccc3C#N)CC2)cn1 | -2.13
36 | O=C(CS(=O)(=O)Cc1cc(Cl)c2c(c1)OCCCO2)NCC1CC1 | -3.53
37 | CN(C)c1ncccc1CNS(=O)(=O)c1ccc(C(N)=O)cc1 | -7.08
38 | CNC(=O)CCS(=O)(=O)Cc1cc(Cl)c2c(c1)OCCCO2 | -3.42
39 | CN(C)c1ncccc1CNS(=O)(=O)c1ccc(F)c(F)c1 | 1.87
40 | CN(Cc1ccsc1)C(=O)Nc1ccc(S(C)(=O)=O)cc1 | -1.57
41 | CC(C)C(C)(C#N)NC(=O)CN1CCC(c2ccnn2CCO)CC1 (centres undefined) | -3.64
42 | Cn1nccc1C1CCN(CC(=O)NCC2CC2)CC1 | -8.55

Row | Structure (SMILES) | cytotoxicity at 70.5 h [%]
43 | CCOc1ccnc(N2CCN(C(=O)c3cnc[nH]3)CC2)n1 | -0.507
44 | CCOc1ccnc(N2CCN(C(=O)c3cc[nH]n3)CC2)n1 | -4.46
45 | Cn1cc(C2CCCN2Cc2csc(-c3ccccc3)n2)cn1 (centres undefined) | -7.14
46 | c1cnn(-c2ccc(CN3CCCC(Cn4cncn4)C3)cc2)c1 (centres undefined) | -1.71
47 | COc1ccc2cc(C(=O)N3CCCC(n4ccnc4C)C3)[nH]c2c1 (centres undefined) | 0.0549
48 | Cc1nccn1C1CCCN(C(=O)c2cc3c(F)cccc3[nH]2)C1 (centres undefined) | -1.56
49 | COc1cccc(CN2CCN(C(=O)CN3CCOCC3)CC2)n1 | 0.577
50 | CCN1CCOC(CNCc2ccccc2OCc2ccccn2)C1 (centres undefined) | 1.15
51 | CCc1cnc(CN(C(C)=O)C2CCN(CCc3cnn(C)c3)C2)o1 (centres undefined) | 2.5
52 | CCc1cnc(CN(C)C2CCN(CCc3cccs3)C2)o1 (centres undefined) | -4.48
53 | CN(C)C(=O)CS(=O)(=O)Cc1cc(Cl)c2c(c1)OCCCO2 | 6.99
54 | CC(C(N)=O)S(=O)(=O)Cc1cc(Cl)c2c(c1)OCO2 (centres undefined) | -12.5
55 | CC(C)(C)c1nc(CN(Cc2cccs2)C2CCS(=O)(=O)C2)no1 (centres undefined) | -4.17
56 | Cn1ncc2c(=O)[nH]c(CN3CCCC3CC3CCCCC3)nc21 (centres undefined) | -9.61
57 | CC(C)OCc1ccc(CNC(=O)CC(F)(F)F)cc1 | -7.73
58 | CCCNC(=O)CN1CCC(C(=O)Nc2cnn(CC)c2)CC1 | -10.8
59 | O=C(O)C1CCCCN1C(=O)c1cccc(C(F)(F)F)c1 (centres undefined) | -9.81
60 | COc1ccc(C2=CCN(C(=O)C3CCN(C)C(=O)C3)CC2)cc1 (centres undefined) | -8.88
61 | Cc1nc(CN(Cc2ccccc2)C2CCS(=O)(=O)C2)oc1C (centres undefined) | -0.994
62 | COc1cc(C(C)=O)ccc1OCC(=O)N(C)Cc1cnn(C)c1 | -7.56
63 | CC(C)c1nn(C)c(N(C)C)c1CNCCC(=O)NC1CCCC1 | 26.8

Row | Structure (SMILES) | cytotoxicity at 70.5 h [%]
64 | CCn1cc(NC(=O)C2CCN(CC(=O)N3CCOCC3)CC2)cn1 | -19
65 | CCc1nnc2n1CCN(C(=O)C(C)COCc1ccccc1)C2 (centres undefined) | -9.75
66 | NC(=O)NCC1CCCCN1C(=O)c1cccc(C(F)(F)F)c1 (centres undefined) | -3.78
67 | O=C(CN1CCCC1Cn1cncn1)NCCc1c(F)cccc1F (centres undefined) | 27.9
68 | COc1cccc(C(=O)N2CCCCC2CNC(N)=O)c1 (centres undefined) | 9
69 | CC(C)Oc1ccc(CNC(=O)CC(F)(F)F)cc1F | -18
70 | CCNc1cc2c(nn1)CCN(C(=O)Cc1c(C)noc1C)C2 | 4.3
71 | CCc1nnc2n1CCN(C(=O)COCCc1ccccc1)C2 | -14.7
72 | Cc1nc(C)n(CC2CN(c3ccc(C#N)cn3)CCO2)n1 (centres undefined) | -4.17
73 | CCOc1cc(C(=O)N2CCCC(c3cc(C(N)=O)[nH]n3)C2)ccn1 (centres undefined) | -7.42
74 | COCCN1CCC(CNC(=O)C2(c3cc(C)cc(C)c3)CCC2)C1 (centres undefined) | -5.65
75 | CN(C)S(=O)(=O)c1ccc(CN2CCCC2CO)o1 (centres undefined) | -17
76 | COCc1nc(C(=O)N2CCCCC2Cn2cccn2)cs1 (centres undefined) | -7.2
77 | CCc1nc2n(n1)CC(NCc1ncc(-c3ccccc3)o1)CC2 (centres undefined) | -5.1
78 | Cc1csc(N2CCN(CC(=O)Nc3c(C)n[nH]c3C)CC2C)n1 (centres undefined) | 7.7
79 | Cc1nn(C)c(C)c1C1CCCN1C(=O)c1ccc(CN(C)C)cc1 (centres undefined) | 15.1
80 | CN(Cc1ccc2c(c1)OCCO2)C(=O)NCCc1cnn(C)c1 | 6.83
81 | COCCCNC(=O)CN(C)C(=O)c1cc(C)ccc1O | -9.64
82 | CN(CC(=O)N1CCC(C(O)c2ccccc2)CC1)c1cnccn1 (centres undefined) | -20.6
83 | Cc1ccc(C)c(OCCN2CCC(N3CCNC3=O)CC2)c1 | -3.76
84 | COCCNC(=O)CN1CCN(c2nc(C)cs2)C(C)C1 (centres undefined) | -1.03
